In the supplement of paper PMC6045584:
± gives the standard deviation of the averaged measurements.

Columns and labels:
EVEROLIMUS = compound: CO[C@H]1C[C@@H]2CC[C@@H](C)[C@@](O)(O2)C(=O)C(=O)N2CCCC[C@H]2C(=O)O[C@H]([C@H](C)C[C@@H]2CC[C@@H](OCCO)[C@H](OC)C2)CC(=O)[C@H](C)/C=C(\C)[C@@H](O)[C@@H](OC)C(=O)[C@H](C)C[C@H](C)/C=C/C=C/C=C/1C [EVEROLIMUS]; assay: surviving fraction relative to DMSO-only wells; higher = less growth inhibition; details: exposure time: 5 days
Outline: (§1)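 Five days of continuous inhibitor exposure, at 0.5, 1, 5, 10, 50, 100, 500 and 1000 nM, followed a 24-hour period after log-phase tumour cell lines were seeded at 250–500 cells per well in 384-well plates. Surviving fraction was derived from CellTiter-Glo luminescence relative to the median of DMSO-only wells. Plates were read after 10 minutes at room temperature, and lines screened three times were kept only if replicate Pearson r >0.7 and median Z' >0.3.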

ERLOTINIB = compound: C#Cc1cccc(Nc2ncnc3cc(OCCOC)c(OCCOC)cc23)c1 [ERLOTINIB]; assay: as above; details: exposure time: 5 days
Outline: as §1

[1] = compound: Cc1nc(Nc2n[nH]c3c2CN(C(=O)N[C@H](CN(C)C)c2ccccc2)C3(C)C)c2sccc2n1; assay: area under dose-response curve of surviving fraction (unscaled, Aref=0) (surviving fraction x log10(nM)); higher = more resistant; details: exposure time: 5 days; dose range 0.5-1000 nM
Outline: (§2)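 Surviving fractions were fitted by 3-parameter logistic regression in the drc R package to give dose-response survival curves. They came from tumour cell lines treated for five days with eight inhibitor concentrations from 0.5 to 1000 nM and read by CellTiter-Glo luminescence against DMSO-only wells. The area under the curve is the unscaled activity area. It was calculated over log10 dose with Aref = 0.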

VINORELBINE = compound: CCC1=C[C@@H]2CN(C1)Cc1c([nH]c3ccccc13)[C@@](C(=O)OC)(c1cc3c(cc1OC)N(C)[C@H]1[C@@](O)(C(=O)OC)[C@H](OC(C)=O)[C@]4(CC)C=CCN5CC[C@]31[C@@H]54)C2 [VINORELBINE]; assay: as above; details: exposure time: 5 days; dose range 0.5-1000 nM
Outline: as §2

GEMCITABINE = compound: Nc1ccn([C@@H]2O[C@H](CO)[C@@H](O)C2(F)F)c(=O)n1 [GEMCITABINE]; assay: as above; details: exposure time: 5 days; dose range 0.5-1000 nM
Outline: as §2

ETOPOSIDE = compound: COc1cc([C@@H]2c3cc4c(cc3[C@@H](O[C@@H]3O[C@@H]5CO[C@@H](C)O[C@H]5[C@H](O)[C@H]3O)[C@H]3COC(=O)[C@H]23)OCO4)cc(OC)c1O [ETOPOSIDE]; assay: as above; details: exposure time: 5 days; dose range 0.5-1000 nM
Outline: as §2

In the case of HELA CERVIX, the surviving fraction (EVEROLIMUS; 0.5 nM) is reported as 1.04 ± 0.027, the surviving fraction (EVEROLIMUS; 1 nM) is reported as 1.04 ± 0.014 and the surviving fraction (EVEROLIMUS; 5 nM) is reported as 1.04 ± 0.029. The surviving fraction (EVEROLIMUS; 10 nM) was 1.036 ± 0.0052, the surviving fraction (EVEROLIMUS; 50 nM) was 1.15 ± 0.023 and the surviving fraction (EVEROLIMUS; 100 nM) was 1.14 ± 0.058. For the same test system, the surviving fraction (EVEROLIMUS; 500 nM) was 1.09 ± 0.036, the surviving fraction (EVEROLIMUS; 1000 nM) was 1.16 ± 0.055 and the surviving fraction (ERLOTINIB; 0.5 nM) was 1.06 ± 0.057. It also gave a surviving fraction (ERLOTINIB; 1 nM) of 1.08 ± 0.045, a surviving fraction (ERLOTINIB; 5 nM) of 1.04 ± 0.089 and a surviving fraction (ERLOTINIB; 10 nM) of 1.05 ± 0.04. It also gave a surviving fraction (ERLOTINIB; 50 nM) of 1.17 ± 0.054, a surviving fraction (ERLOTINIB; 100 nM) of 1.18 ± 0.028 and a surviving fraction (ERLOTINIB; 500 nM) of 1.25 ± 0.035. The surviving fraction (ERLOTINIB; 1000 nM) was 1.15 ± 0.021, the “area under dose-response curve” value [1] was 2.12 and the “area under dose-response curve” value (VINORELBINE) was 1.64. For the same test system, the “area under dose-response curve” value (GEMCITABINE) was 1.75 and the “area under dose-response curve” value (ETOPOSIDE) was 3.04.
For HMLE3 BREAST, the surviving fraction (EVEROLIMUS; 0.5 nM) was 1.02 ± 0.065, the surviving fraction (EVEROLIMUS; 1 nM) was 0.956 ± 0.02 and the surviving fraction (EVEROLIMUS; 5 nM) was 0.813 ± 0.036. For the same test system, the surviving fraction (EVEROLIMUS; 10 nM) was 0.682 ± 0.016, the surviving fraction (EVEROLIMUS; 50 nM) was 0.455 ± 0.063 and the surviving fraction (EVEROLIMUS; 100 nM) was 0.402 ± 0.036. For the same test system, the surviving fraction (EVEROLIMUS; 500 nM) was 0.322 ± 0.044, the surviving fraction (EVEROLIMUS; 1000 nM) was 0.306 ± 0.019 and the surviving fraction (ERLOTINIB; 0.5 nM) was 1.07 ± 0.021. It also gave a surviving fraction (ERLOTINIB; 5 nM) of 1.1 ± 0.038, a surviving fraction (ERLOTINIB; 10 nM) of 1.07 ± 0.026 and a surviving fraction (ERLOTINIB; 100 nM) of 1.17 ± 0.077. The surviving fraction (ERLOTINIB; 500 nM) was 0.976 ± 0.15, the surviving fraction (ERLOTINIB; 1000 nM) was 0.916 ± 0.013 and the “area under dose-response curve” value [1] was 0.944. For the same test system, the “area under dose-response curve” value (VINORELBINE) was 1.81, the “area under dose-response curve” value (GEMCITABINE) was 1.1 and the “area under dose-response curve” value (ETOPOSIDE) was 2.53.
In the case of HOS BONE, the surviving fraction (EVEROLIMUS; 0.5 nM) is reported as 0.885 ± 0.015, the surviving fraction (EVEROLIMUS; 1 nM) is reported as 0.861 ± 0.0096 and the surviving fraction (EVEROLIMUS; 5 nM) is reported as 0.804 ± 0.018. The surviving fraction (EVEROLIMUS; 10 nM) was 0.742 ± 0.021, the surviving fraction (EVEROLIMUS; 50 nM) was 0.763 ± 0.011 and the surviving fraction (EVEROLIMUS; 100 nM) was 0.766 ± 0.012. The surviving fraction (EVEROLIMUS; 500 nM) was 0.711 ± 0.033, the surviving fraction (EVEROLIMUS; 1000 nM) was 0.721 ± 0.0092 and the surviving fraction (ERLOTINIB; 0.5 nM) was 1.038 ± 0.0011. The surviving fraction (ERLOTINIB; 5 nM) was 1.03 ± 0.028, the surviving fraction (ERLOTINIB; 10 nM) was 1.03 ± 0.022 and the surviving fraction (ERLOTINIB; 100 nM) was 1.05 ± 0.0058. For the same test system, the surviving fraction (ERLOTINIB; 500 nM) was 1.03 ± 0.038, the surviving fraction (ERLOTINIB; 1000 nM) was 0.98 ± 0.046 and the “area under dose-response curve” value [1] was 1.45. The “area under dose-response curve” value (VINORELBINE) was 1.78, the “area under dose-response curve” value (GEMCITABINE) was 0.975 and the “area under dose-response curve” value (ETOPOSIDE) was 2.45.
HS578T BREAST was tested, and the surviving fraction (EVEROLIMUS; 0.5 nM) was 0.6 ± 0.095, the surviving fraction (EVEROLIMUS; 1 nM) was 0.598 ± 0.019 and the surviving fraction (EVEROLIMUS; 5 nM) was 0.527 ± 0.047. The surviving fraction (EVEROLIMUS; 10 nM) was 0.524 ± 0.042, the surviving fraction (EVEROLIMUS; 50 nM) was 0.563 ± 0.08 and the surviving fraction (EVEROLIMUS; 100 nM) was 0.545 ± 0.048. For the same test system, the surviving fraction (EVEROLIMUS; 500 nM) was 0.471 ± 0.044, the surviving fraction (EVEROLIMUS; 1000 nM) was 0.468 ± 0.017 and the surviving fraction (ERLOTINIB; 0.5 nM) was 1.18 ± 0.052. The surviving fraction (ERLOTINIB; 1 nM) was 1.4 ± 0.32, the surviving fraction (ERLOTINIB; 5 nM) was 1.21 ± 0.22 and the surviving fraction (ERLOTINIB; 10 nM) was 1.23 ± 0.063. It also gave a surviving fraction (ERLOTINIB; 50 nM) of 1.33 ± 0.21, a surviving fraction (ERLOTINIB; 100 nM) of 1.32 ± 0.16 and a surviving fraction (ERLOTINIB; 500 nM) of 1.28 ± 0.23. For the same test system, the surviving fraction (ERLOTINIB; 1000 nM) was 1.18 ± 0.12, the “area under dose-response curve” value [1] was 1.45 and the “area under dose-response curve” value (VINORELBINE) was 1.28. The “area under dose-response curve” value (GEMCITABINE) was 3.12 and the “area under dose-response curve” value (ETOPOSIDE) was 2.59.
In the case of HSSYII SYNOVIAL, the surviving fraction (EVEROLIMUS; 0.5 nM) is reported as 0.781 ± 0.043, the surviving fraction (EVEROLIMUS; 1 nM) is reported as 0.711 ± 0.066 and the surviving fraction (EVEROLIMUS; 5 nM) is reported as 0.616 ± 0.018. For the same test system, the surviving fraction (EVEROLIMUS; 10 nM) was 0.566 ± 0.025, the surviving fraction (EVEROLIMUS; 50 nM) was 0.476 ± 0.011 and the surviving fraction (EVEROLIMUS; 100 nM) was 0.462 ± 0.025. The surviving fraction (EVEROLIMUS; 500 nM) was 0.416 ± 0.051, the surviving fraction (EVEROLIMUS; 1000 nM) was 0.3632 ± 0.0025 and the surviving fraction (ERLOTINIB; 0.5 nM) was 0.966 ± 0.066. It also gave a surviving fraction (ERLOTINIB; 1 nM) of 1.03 ± 0.036, a surviving fraction (ERLOTINIB; 5 nM) of 1.02 ± 0.058 and a surviving fraction (ERLOTINIB; 10 nM) of 1.06 ± 0.031. The surviving fraction (ERLOTINIB; 50 nM) was 1.03 ± 0.062, the surviving fraction (ERLOTINIB; 100 nM) was 1.01 ± 0.049 and the surviving fraction (ERLOTINIB; 500 nM) was 1.02 ± 0.063. For the same test system, the surviving fraction (ERLOTINIB; 1000 nM) was 1 ± 0.076, the “area under dose-response curve” value [1] was 1.02 and the “area under dose-response curve” value (VINORELBINE) was 0.855. The “area under dose-response curve” value (GEMCITABINE) was 0.795 and the “area under dose-response curve” value (ETOPOSIDE) was 2.41.
With HT1080 SOFT TISSUE the surviving fraction (EVEROLIMUS; 0.5 nM) was 1.04 ± 0.029, the surviving fraction (EVEROLIMUS; 1 nM) was 0.991 ± 0.013 and the surviving fraction (EVEROLIMUS; 5 nM) was 0.733 ± 0.039. It also gave a surviving fraction (EVEROLIMUS; 10 nM) of 0.577 ± 0.045, a surviving fraction (EVEROLIMUS; 50 nM) of 0.496 ± 0.019 and a surviving fraction (EVEROLIMUS; 100 nM) of 0.48 ± 0.029. The surviving fraction (EVEROLIMUS; 500 nM) was 0.477 ± 0.036, the surviving fraction (EVEROLIMUS; 1000 nM) was 0.477 ± 0.036 and the surviving fraction (ERLOTINIB; 1 nM) was 1.05 ± 0.032. The surviving fraction (ERLOTINIB; 5 nM) was 1.06 ± 0.027, the surviving fraction (ERLOTINIB; 10 nM) was 1.05 ± 0.026 and the surviving fraction (ERLOTINIB; 50 nM) was 1.024 ± 0.004. The surviving fraction (ERLOTINIB; 100 nM) was 1.02 ± 0.022, the surviving fraction (ERLOTINIB; 500 nM) was 1.07 ± 0.066 and the surviving fraction (ERLOTINIB; 1000 nM) was 1.03 ± 0.077. The “area under dose-response curve” value [1] was 1.07, the “area under dose-response curve” value (VINORELBINE) was 1.38 and the “area under dose-response curve” value (GEMCITABINE) was 1.22. For the same test system, the “area under dose-response curve” value (ETOPOSIDE) was 2.29.
Work on HU09 BONE yielded a surviving fraction (EVEROLIMUS; 0.5 nM) of 0.669 ± 0.016, a surviving fraction (EVEROLIMUS; 1 nM) of 0.602 ± 0.037 and a surviving fraction (EVEROLIMUS; 5 nM) of 0.513 ± 0.0057. It also gave a surviving fraction (EVEROLIMUS; 10 nM) of 0.512 ± 0.048, a surviving fraction (EVEROLIMUS; 50 nM) of 0.49 ± 0.011 and a surviving fraction (EVEROLIMUS; 100 nM) of 0.42 ± 0.011. For the same test system, the surviving fraction (EVEROLIMUS; 500 nM) was 0.382 ± 0.016, the surviving fraction (EVEROLIMUS; 1000 nM) was 0.39 ± 0.023 and the surviving fraction (ERLOTINIB; 0.5 nM) was 1.08 ± 0.11. For the same test system, the surviving fraction (ERLOTINIB; 1 nM) was 0.986 ± 0.073, the surviving fraction (ERLOTINIB; 5 nM) was 1.12 ± 0.073 and the surviving fraction (ERLOTINIB; 10 nM) was 1.04 ± 0.1. For the same test system, the surviving fraction (ERLOTINIB; 50 nM) was 1.11 ± 0.029, the surviving fraction (ERLOTINIB; 100 nM) was 1.1 ± 0.024 and the surviving fraction (ERLOTINIB; 500 nM) was 1.04 ± 0.061. The surviving fraction (ERLOTINIB; 1000 nM) was 0.965 ± 0.062, the “area under dose-response curve” value [1] was 1.37 and the “area under dose-response curve” value (VINORELBINE) was 1.47. The “area under dose-response curve” value (GEMCITABINE) was 0.594 and the “area under dose-response curve” value (ETOPOSIDE) was 2.6.
